According to paper PMC7126875 (Bioorganic & Medicinal Chemistry Letters, 2007):

Legend:
[1] = system: SARS-CoV Frankfurt-1 strain; type: cell-based
[2] = system: SARS-CoV Frankfurt-1 strain; type: cell-based; remark: listed apart in the source
[3] = system: SARS-CoV Frankfurt-1 strain; settings: cited from earlier work
Vero E6 cells = settings: cited from earlier work
[4] = system: SARS-CoV Frankfurt-1 strain; settings: cited from earlier work; remark: listed apart in the source

SMILES	anti-SARS-CoV activity (in words) [2]	Antiviral index (50% toxic dose divided by 50% inhibitory dose) [3]	CC50 (Vero E6 cells)	concentration required to decrease the virus yield to one-tenth of the control [4]	further results
OC[C@H]1O[C@@H](n2cnc3c(Cl)ncnc32)[C@H](O)[C@@H]1O [Compound 1]	–	–	–	–	concentration required to reduce the virus yield to one-hundredth of the control [1]: approximately 20 μM
OC[C@H]1O[C@@H](n2cnc3c(Cl)ncnc32)C[C@@H]1O [Compound 6]	weak antiviral activity	–	–	–	–
OC[C@@H]1C[C@@H](O)[C@H](n2cnc3c(Cl)ncnc32)O1 [Compound 7]	weak antiviral activity	–	–	–	–
OCC1CC(n2cnc3c(Cl)ncnc32)C1CO (stereo not shown) [Compound 10]	almost no activity	–	–	–	–
NC(=O)c1ncn([C@@H]2O[C@H](CO)[C@@H](O)[C@H]2O)c1O [Mizoribine]	–	>52	> 700 µM	approximately 35 μM	–
NC(=O)c1ncn([C@@H]2O[C@H](CO)[C@@H](O)[C@H]2O)n1 [Ribavirin]	–	>10	> 850 µM	~200 µM	–
